According to PMC6165285, “α-Glucosidase Inhibitors: Diphenyl Ethers and Phenolic Bisabolane Sesquiterpenoids from the Mangrove Endophytic Fungus Aspergillus flavus QQSG-3” (Marine Drugs, 2018):
Entries after “also recorded” stand apart in the source; their conditions may differ.

What follows are molecules tested against α-glucosidase (Saccharomyces cerevisiae, UniProt P53341) (assay: α-Glucosidase inhibitory activity (p-nitrophenyl-α-glucopyranoside substrate, absorbance at 405 nm)). Details: compared to the positive control acarbose.
Type: biochemical
Experimental: α-Glucosidase was assayed according to standard procedures. […] Ten microliters of testing materials (in triplicate) were incubated for 10 min with 20 μL of enzyme stock solution and 60 μL of PBS. After incubation, 10 μL of substrate was added and incubated for 20 min at 37 °C. Absorbance at 405 nm was then determined.
The inhibitory activity of the isolates was determined as a percentage in comparison to a blank (DMSO) according to the following equation: %αGHY=(1−A405t/A405c)×100% where %αGHY is the percentage of inhibition, A405t is the corrected absorbance of the compound under testing (A405end − A405initial), and A405c is the absorbance of the blank (A405endblank − A405initialblank). The IC50 values of compounds were calculated by the nonlinear regression analysis.

Sequence of α-glucosidase (P53341 whole entry): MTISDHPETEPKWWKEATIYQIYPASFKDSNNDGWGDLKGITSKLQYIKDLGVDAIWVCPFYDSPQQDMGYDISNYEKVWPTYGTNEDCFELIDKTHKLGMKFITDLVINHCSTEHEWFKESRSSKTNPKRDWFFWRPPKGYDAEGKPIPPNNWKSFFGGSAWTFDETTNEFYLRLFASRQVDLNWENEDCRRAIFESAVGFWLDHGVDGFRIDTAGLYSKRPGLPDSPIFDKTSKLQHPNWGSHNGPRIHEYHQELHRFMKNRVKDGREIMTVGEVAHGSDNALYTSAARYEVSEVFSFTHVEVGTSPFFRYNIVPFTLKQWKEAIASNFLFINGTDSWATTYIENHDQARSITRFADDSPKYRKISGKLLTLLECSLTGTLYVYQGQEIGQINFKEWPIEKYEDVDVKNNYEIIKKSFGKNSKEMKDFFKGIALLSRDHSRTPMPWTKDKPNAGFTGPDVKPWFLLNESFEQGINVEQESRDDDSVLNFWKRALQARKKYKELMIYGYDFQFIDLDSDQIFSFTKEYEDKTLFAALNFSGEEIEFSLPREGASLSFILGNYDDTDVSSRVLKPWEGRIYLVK

SMILES | α-glucosidase inhibitory activity, result in words
Cc1cc(O)cc(Oc2cc(C)c(C(=O)OCC(O)C(O)CO)c(O)c2)c1 (stereo not drawn) [Compound 2] | better than that of acarbose
Cc1cc(O)cc(Oc2cc(C)cc(OCc3ccc([C@@](C)(O)CCCC(C)C)c(O)c3)c2)c1 [Compound 10, peniciaculin A] | strong inhibitory activity; also recorded: strong inhibitory effects
CC(C)CCCC(C)(O)c1ccc(COCc2ccc(C(C)(O)CCCC(C)C)c(O)c2)cc1O (stereo not drawn) [Compound 5] | strong inhibitory activity; also recorded: strong inhibitory effects
C/C(=C\CCC(C)C)c1ccc(Cc2cc(C)cc(O)c2O)cc1O [Compound 3] | strong inhibitory activity; also recorded: strong inhibitory effects
Cc1cc(O)cc(Oc2cc(C)c(O)c(O)c2)c1 [Compound 1] | better than that of acarbose
C/C(=C\CCC(C)C)c1ccc(Cc2c(C)cc(Oc3cc(C)cc(O)c3)cc2O)cc1O [Compound 11, expansol D] | strong inhibitory activity; also recorded: strong inhibitory effects
